Our source for the IC50 values is patent publication US10550113B2, “2-phenyl-3H-imidazo[4,5-B]pyridine derivates useful as inhibitors of mammalian tyrosine kinase ROR1 activity” (Kancera AB, priority 2015, dated 2020).

Data set [1] has as its system PBMC from CLL patients. Briefly: CellTiter-Blue cell viability assay, cell toxicity in PBMC from CLL patients. The class given is cell-based. The following applies: Homo sapiens, 50 000 cells/well, cultured 24, 48 and 72 h (time of the IC50 not stated), % cytotoxicity vs 0.2% DMSO. As for the experimental part:
(§1) Method for Measurement of Cell Toxicity
(§2) The CellTiter-Blue® Cell Viability Assay provides a homogeneous, fluorometric method for estimating the number of viable cells present in multi-well plates. The assay uses the indicator dye resazurin to measure the metabolic capacity of cells. Viable cells retain the ability to reduce resazurin into resorufin, which is highly fluorescent.
(§3) Stock solutions (10 or 100 mM in DMSO) of compounds were serially diluted 1:2 in 11 concentrations and 25 nL/well (100 mM stock) or 50 nL/well (10 mM stock) were acoustically dispensed in assay plates with an EDC acoustic dispenser. Final starting concentration in the assay was 20 μM (0.2% DMSO) or 100 μM (0.1% DMSO) for test compounds.
(§4) Peripheral blood mononuclear cells (PBMC) from CLL patients or healthy volunteers were seeded in assay plates (384-well black/clear, Greiner #781091) pre-dispensed with compounds, 25 μL/well, and cultured for 24, 48 and 72 h. The cell concentration was 50 000 cells/well for PBMC from CLL patients or healthy volunteers. After 24, 48 and 72 h culture, Celltiter Blue reagent was added (5 μL/well) and the plates were incubated for 2 h. The plates were read in an Envision fluorescence reader (PerkinElmer) with Ex544 nm/Em590 nm. Results were calculated as % cytotoxicity compared to background (cells treated with 0.2% DMSO).
(§5) Thus, IC50 values for cell toxicity in PBMC from CLL patients as well as healthy volunteers for some compounds of the invention are shown in Table 3.

The nature of data set [2]: CellTiter-Blue cell viability assay, cell toxicity in PBMC from healthy volunteers. The class given is cell-based. The following applies: human, 50 000 cells/well, cultured 24, 48 and 72 h (time of the IC50 not stated), % cytotoxicity vs 0.2% DMSO. The protocol: as §1, §2, §3, §4, §5
In general terms: The colour change of resazurin is a common sign of viable cells or microbes.

Where only a bound is given, the exact number is not on record here.

On to `CNC(=O)COc1ccc(-c2nc3c(N(C)C4CCN(Cc5ccccc5)CC4)c(Cl)cnc3[nH]2)cc1` [Example 19, 2-(4-{7-[(1-benzylpiperidin-4-yl)(methyl)amino]-6-chloro-3H-imidazo[4,5-b]pyridin-2-yl}phenoxy)-N-methylacetamide], for which the IC50 – broadly, the concentration needed to halve the response being measured – was 3.23 µM in data set [1] and above 20 µM in data set [2].
Taken in the same sequence, the figures for `CNC(=O)Cc1ccc(-c2nc3c(NC4CCN(C)CC4)c(Cl)cnc3[nH]2)cc1` [Example 232, 2-(4-{6-chloro-7-[(1-methylpiperidin-4-yl)amino]-3H-imidazo[4,5-b]pyridin-2-yl}phenyl)-N-methylacetamide] were 0.57 µM and above 20 µM.
Taken in the same sequence, the figures for `CNC(=O)COc1ccc(-c2nc3c(N[C@H]4CCN(Cc5ccc(OC)cc5)C4)c(Cl)cnc3[nH]2)cc1` [Example 43, 2-[4-(6-chloro-7-{[(3S)-1-(4-methoxybenzyl)pyrrolidin-3-yl]amino}-3H-imidazo[4,5-b]pyridin-2-yl)phenoxy]-N-methylacetamide] were 1.74 µM and above 20 µM.
The corresponding values for `CN1CCC(Nc2c(Br)cnc3[nH]c(-c4ccc(OCC(=O)NC5CCCC5)cc4)nc23)CC1` [Example 259, 2-(4-{6-bromo-7-[(1-methylpiperidin-4-yl)amino]-3H-imidazo[4,5-b]pyridin-2-yl}phenoxy)-N-cyclopentylacetamide] are 0.033 µM and 11.1 µM.
With `CN(C)CCNC(=O)COc1ccc(-c2nc3c(NC4CCN(CCc5ccccc5)CC4)c(Cl)cnc3[nH]2)cc1` [Example 3, 2-[4-(6-chloro-7-{[1-(2-phenylethyl)piperidin-4-yl]amino}-3H-imidazo[4,5-b]pyridin-2-yl)phenoxy]-N-[2-(dimethylamino)ethyl]acetamide], the IC50 in data set [1] amounted to 1.2 µM; in data set [2], 9.9 µM.
Taken in the same sequence, the figures for `CNC(=O)CNc1ccc(-c2nc3c(NC4CCN(C)CC4)c(Cl)cnc3[nH]2)cc1` [Example 294, N^2-(4-(6-chloro-7-[(1-methylpiperidin-4-yl)amino]-3H-imidazo[4,5-b]pyridin-2-yl}phenyl)-N-methylglycinamide] were 0.36 µM and above 20 µM.
The corresponding values for `CNC(=O)COc1ccc(-c2nc3c(NC4CCN(Cc5ccc(NC(C)=O)cc5)CC4)c(Cl)cnc3[nH]2)cc1` [Example 75, 2-[4-(7-{[1-(4-acetamidobenzyl)piperidin-4-yl]amino}-6-chloro-3H-imidazo[4,5-b]pyridin-2-yl)phenoxy]-N-methylacetamide] are 1.12 µM and above 20 µM.
For the compound `CNC(=O)COc1ccc(-c2nc3c(NC4CCN(Cc5c(C)nn(C)c5C)CC4)c(Br)cnc3[nH]2)cc1` [Example 288, 2-{4-[6-bromo-7-({1-[(1,3,5-trimethyl-1H-pyrazol-4-yl)methyl]piperidin-4-yl}amino)-3H-imidazo[4,5-b]pyridin-2-yl]phenoxy}-N-methylacetamide], the half-inhibitory concentration (IC50) in data set [1] was 0.4 µM; in data set [2] it was above 20 µM.
The corresponding values for `CC(=O)NCCOc1ccc(-c2nc3c(NC4CCN(C)CC4)c(Cl)cnc3[nH]2)cc1` [Example 265, N-[2-(4-{6-chloro-7-[(1-methylpiperidin-4-yl)amino]-3H-imidazo[4,5-b]pyridin-2-yl}phenoxy)ethyl] acetamide] are 0.26 µM and above 20 µM.
The corresponding values for `Cc1ccc(CN2CCC(Nc3c(Cl)cnc4[nH]c(-c5ccc(OCC(=O)NCC(C)(C)N(C)C)cc5)nc34)CC2)cc1` [Example 27, 2-[4-(6-chloro-7-{[1-(4-methylbenzyl)piperidin-4-yl]amino}-3H-imidazo[4,5-b]pyridin-2-yl)phenoxy]-N-[2-(dimethylamino)-2-methylpropyl]acetamide] are 1.42 µM and 14.1 µM.
The corresponding values for `CNC(=O)COc1ccc(-c2nc3c(NC4CCN(Cc5ccc(-n6cncn6)cc5)CC4)c(Cl)cnc3[nH]2)cc1` [Example 99, 2-{4-[6-chloro-7-({1-[4-(1H-1,2,4-triazol-1-yl)benzyl]piperidin-4-yl}amino)-3H-imidazo[4,5-b]pyridin-2-yl]phenoxy}-N-methylacetamide] are 0.27 µM and above 20 µM.
Regarding `CN(C)CCNC(=O)COc1ccc(-c2nc3c(N[C@H]4CCN(Cc5ccccc5)C4)c(Cl)cnc3[nH]2)cc1` [Example 2, 2-[4-(7-{[(3S)-1-benzylpyrrolidin-3-yl]amino}-6-chloro-3H-imidazo[4,5-b]pyridin-2-yl)phenoxy]-N-[2-(dimethylamino)ethyl]acetamide], the half-inhibitory concentration (IC50) in data set [1] was 1.3 µM; in data set [2], 13.8 µM.
Turning to `CNC(=O)COc1ccc(-c2nc3c(NC4CCN(C)CC4)c(Br)cnc3[nH]2)c(C)c1` [Example 159, 2-(4-{6-bromo-7-[(1-methylpiperidin-4-yl)amino]-3H-imidazo[4,5-b]pyridin-2-yl}-3-methylphenoxy)-N-methylacetamide], the IC50 in data set [1] is 0.31 µM; in data set [2], above 20 µM.
Taken in the same sequence, the figures for `CN(C)CCNC(=O)COc1ccc(-c2nc3c(NC4CCN(Cc5ccsc5)CC4)c(Cl)cnc3[nH]2)cc1` [Example 15, 2-[4-(6-chloro-7-{[1-(thiophen-3-ylmethyl)piperidin-4-yl]amino}-3H-imidazo[4,5-b]pyridin-2-yl)phenoxy]-N-[2-(dimethylamino)ethyl]acetamide] were 0.79 µM and 13.9 µM.
With `CNC(=O)COc1ccc(-c2nc3c(NC4CCN(C5CCCCC5)CC4)c(Cl)cnc3[nH]2)cc1` [Example 56, 2-(4-{6-chloro-7-[(1-cyclohexylpiperidin-4-yl)amino]-3H-imidazo[4,5-b]pyridin-2-yl}phenoxy)-N-methylacetamide], the IC50 in data set [1] was 0.37 µM; in data set [2], above 20 µM.
Taken in the same sequence, the figures for `CN1CCC(Nc2c(Cl)cnc3[nH]c(-c4ccc(OCC(=O)NCCC5CCOCC5)cc4)nc23)CC1` [Example 147, 2-(4-{6-chloro-7-[(1-methylpiperidin-4-yl)amino]-3H-imidazo[4,5-b]pyridin-2-yl}phenoxy)-N-[2-(tetrahydro-2H-pyran-4-yl)ethyl]acetamide] were 0.14 µM and above 20 µM.
The corresponding values for `CN(C)C(=O)COc1ccc(-c2nc3c(N[C@H]4CCN(Cc5ccccc5)C4)c(Cl)cnc3[nH]2)cc1` [Example 64, 2-[4-(7-{[(3S)-1-benzylpyrrolidin-3-yl]amino}-6-chloro-3H-imidazo[4,5-b]pyridin-2-yl)phenoxy]-N,N-dimethylacetamide] are 0.89 µM and 13.9 µM.
The corresponding values for `CNC(=O)COc1ccc(-c2nc3c(NC4CCN(Cc5ccccc5)CC4)c(Cl)cnc3[nH]2)cc1` [Example 11, 2-(4-{7-[(1-benzylpiperidin-4-yl)amino]-6-chloro-3H-imidazo[4,5-b]pyridin-2-yl}phenoxy)-N-methylacetamide] are 0.44 µM and 14.8 µM.
Turning to `CN1CCC(Nc2c(Cl)cnc3[nH]c(-c4ccc(OCCNC(=O)c5ccncc5)cc4)nc23)CC1` [Example 272, N-[2-(4-{6-chloro-7-[(1-methylpiperidin-4-yl)amino]-3H-imidazo[4,5-b]pyridin-2-yl}phenoxy)ethyl]pyridine-4-carboxamide], the IC50 is 0.25 µM in data set [1] and above 20 µM in data set [2].
As for `CNC(=O)COc1ccc(-c2nc3c(NC4CCN(C)CC4)c(Cl)cnc3[nH]2)cc1OC` [Example 168, 2-(4-{6-chloro-7-[(1-methylpiperidin-4-yl)amino]-3H-imidazo[4,5-b]pyridin-2-yl}-2-methoxyphenoxy)-N-methylacetamide], the IC50 in data set [1] is 0.25 µM; in data set [2] it was above 20 µM.
The corresponding values for `CNC(=O)COc1ccc(-c2nc3c(N[C@H]4CCN(Cc5ccc(F)c(F)c5)C4)c(Cl)cnc3[nH]2)cc1` [Example 34, 2-[4-(6-chloro-7-{[(3S)-1-(3,4-difluorobenzyl)pyrrolidin-3-yl]amino}-3H-imidazo[4,5-b]pyridin-2-yl)phenoxy]-N-methylacetamide] are 3.11 µM and 17.7 µM.
Taken in the same sequence, the figures for `CNC(=O)CCNc1ccc(-c2nc3c(NC4CCN(C)CC4)c(Cl)cnc3[nH]2)cc1` [Example 302, N^3-(4-{6-chloro-7-[(1-methylpiperidin-4-yl)amino]-3H-imidazo[4,5-b]pyridin-2-yl}phenyl)-N-methyl-b-alaninamide] were 0.62 µM and above 20 µM.
`CNC(=O)COc1cccc(-c2nc3c(NC4CCN(C)CC4)c(Cl)cnc3[nH]2)c1` [Example 117, 2-(3-{6-chloro-7-[(1-methylpiperidin-4-yl)amino]-3H-imidazo[4,5-b]pyridin-2-yl}phenoxy)-N-methylacetamide]: the IC50 in data set [1] was 0.32 µM; in data set [2], above 20 µM.
The corresponding values for `CNC(=O)COc1ccc(-c2nc3c(NC4CCN(CCOc5ccccc5)CC4)c(Cl)cnc3[nH]2)cc1` [Example 96, 2-[4-(6-chloro-7-{[1-(2-phenoxyethyl)piperidin-4-yl]amino}-3H-imidazo[4,5-b]pyridin-2-yl)phenoxy]-N-methylacetamide] are 0.31 µM and 13.6 µM.
